Data: patent US20180296595A1, “METHODS AND COMPOSITIONS FOR CANCER TREATMENT” (Memorial Sloan Kettering Cancer Center, priority 2015, published 2018)
pKd: −log10 of the molar value. Ends that are not written are not given here.

Experiments:
FR1 = FR1 (Homo sapiens, UniProt P15328); conditions: read-out: affinity for FR1; cited from earlier work
FR2 = FR2 (Homo sapiens, UniProt P14207); conditions: read-out: affinity for FR2; cited from earlier work
LNCaP xenografts = assay: LNCaP prostate cancer xenografts; assay type: in vivo
Description: Each of the photographs in FIG. 6, panel C and panel D depicts a representative animal treated with vehicle (FIG. 6, panel C) or bortezomib-loaded FH (1.0 mM) (FIG. 6, panel D).
Studies in breast cancer described a “low intracellular iron” phenotype, characterized by high ferroportin, which was associated with good prognosis. In contrast, the “high intracellular iron” phenotype, characterized by low ferroportin and high hepcidin, was associated with a poor prognosis (Pinnix et al. (2010), Sci. Transl. Med., 2(43): 43ra56). Recently, a similar observation was made in prostate cancer (Tesfay et al. (2015) Cancer Res., 75(11):2254-63. To extend the analysis to prostate cancer, LNCaP prostate cancer xenografts were treated with FH-loaded bortezomib (a ROS-inducing drug).
FH alone was able to decrease tumor volume by about 33% (panel b). […] Free bortezomib was not effective, but when loaded into FH a significant therapy effect was achieved as shown in (panels a and b). Importantly, FH alone also exerted an effect, decreasing tumor volume. Each of the photographs in panel c and panel d depicts a representative animal treated with vehicle (panel c) or bortezomib-loaded FH (1.0 mM) (panel d).

22RV1 cells = assay: FPN expression after hepcidin therapy; assay type: cell-based
Text: As a followup, eight different genomic datasets available for prostate cancer on cBioPortal (www.cbioportal.org) containing whole genome data from 1229 prostate cancer patients were mined for analysis. […] FACS and Western Blotting confirmed higher expression of FPN in 22RV1 compared to DU145 (FIG. 7, panel C). […] In 22RV1 cells with higher FPN higher levels of erastin were required compared to DU145 cells with low FPN (FIG. 7, panel E).

Chain of FR1 (P15328 25-234): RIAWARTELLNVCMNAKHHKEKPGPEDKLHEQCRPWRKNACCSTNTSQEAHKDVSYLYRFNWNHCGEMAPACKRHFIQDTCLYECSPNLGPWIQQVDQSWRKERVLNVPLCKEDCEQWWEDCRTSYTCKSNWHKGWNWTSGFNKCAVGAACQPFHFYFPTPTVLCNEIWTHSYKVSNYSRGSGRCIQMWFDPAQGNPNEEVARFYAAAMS
Chain of FR2 (P14207 17-230): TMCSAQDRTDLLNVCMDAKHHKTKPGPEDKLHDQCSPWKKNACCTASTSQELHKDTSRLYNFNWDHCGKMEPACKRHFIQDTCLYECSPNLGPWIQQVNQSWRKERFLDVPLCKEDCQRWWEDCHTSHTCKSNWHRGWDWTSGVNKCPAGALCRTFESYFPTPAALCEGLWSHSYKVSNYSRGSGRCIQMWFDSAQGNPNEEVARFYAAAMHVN

In the case of `CN1c2c(nc(N)[nH]c2=O)NC[C@@H]1CNc1ccc(C(=O)N[C@@H](CCC(=O)O)C(=O)O)cc1` [6S 5-methyltetrahydrofolate], the pKd (FR1) is listed as 7.26 and the pKd (FR2) is listed as 9.00.

With `CC(C)C[C@H](NC(=O)[C@H](Cc1ccccc1)NC(=O)c1cnccn1)B(O)O` [bortezomib] the therapeutic effect (LNCaP xenografts) was “not effective”.

For “hepcidin (DTHFPICIFCCGCCHRSKCGMCCKT; ends and bridges not checked; cysteine pairing not given here; UniProt P81172 60-84, looked up) [peptide hormone, key regulator of iron homeostasis]”, the “FPN on the cell surface” value (22RV1 cells) was “lowered FPN on the cell surface”.
